Key:
southern crabgrass [1] = assay: Test Example 4: herbicidal effect by soil treatment (Table 19, symbol F); type: in vivo, southern crabgrass (Digitaria ciliaris); details: amount of applied herbicide 320 g/ha
Summary of the method: (§1)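 Emulsion of test compound, water-diluted to predetermined amount, sprayed on soil after sowing (seed depth ~1.5 cm, sterilized diluvial soil). Greenhouse, 25–30° C. Effect graded at three weeks post-spray.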

Japanese bulrush = assay: Test Example 2: herbicidal activity, application during weed generation under submerged conditions (Table 17, symbol B); type: in vivo, Japanese bulrush (Schoenoplectus juncoides); details: AAH 320 g/ha; application during weed generation, submerged conditions
Summary of the method: (§2)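 Herbicide emulsion, diluted with water to the chosen amount, is applied onto 4 cm floodwater over alluvial soil where the weeds were co-sown and raised at 25–30° C. Application timing: 1–2 leaves. Assessment: three weeks afterwards.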

chickweed = assay: Test Example 4: herbicidal effect by soil treatment (Table 19, symbol P); type: in vivo, common chickweed (Stellaria media); details: amount of applied herbicide 320 g/ha
Summary of the method: as §1

persian speedwell [2] = assay: Test Example 5: herbicidal effect by foliage application, plastic box (Table 20, symbol R); type: in vivo, Persian speedwell (Veronica persica); details: foliage application, AAH 320 g/ha, three weeks after application
Summary of the method: (§3)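 Post-emergence foliar test in sterilized diluvial soil. Compound applied as water-diluted emulsion at a predetermined rate to 14-day-old plants; evaluation at three weeks.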

barnyard grass = assay: Test Example 5: herbicidal effect by foliage application, plastic box (Table 20, symbol H); type: in vivo, barnyard grass (Echinochloa crus-galli); details: foliage application, AAH 320 g/ha, three weeks after application
Summary of the method: as §3

Italian ryegrass [3] = assay: Test Example 4: herbicidal effect by soil treatment (Table 19, symbol K); type: in vivo, Italian ryegrass (Lolium multiflorum); details: amount of applied herbicide 320 g/ha
Summary of the method: as §1

southern crabgrass [4] = assay: Test Example 5: herbicidal effect by foliage application, plastic box (Table 20, symbol F); type: in vivo, southern crabgrass (Digitaria ciliaris); details: foliage application, AAH 320 g/ha, three weeks after application
Summary of the method: as §3

blackgrass = assay: Test Example 4: herbicidal effect by soil treatment (Table 19, symbol J); type: in vivo, blackgrass (Alopecurus myosuroides); details: amount of applied herbicide 320 g/ha
Summary of the method: as §1

Italian ryegrass [5] = assay: Test Example 5: herbicidal effect by foliage application, plastic box (Table 20, symbol K); type: in vivo, Italian ryegrass (Lolium multiflorum); details: foliage application, AAH 320 g/ha, three weeks after application
Summary of the method: as §3

lambsquarters = assay: Test Example 5: herbicidal effect by foliage application, plastic box (Table 20, symbol O); type: in vivo, lambsquarters (Chenopodium album); details: foliage application, AAH 320 g/ha, three weeks after application
Summary of the method: as §3

redroot pigweed [6] = assay: Test Example 5: herbicidal effect by foliage application, plastic box (Table 20, symbol N); type: in vivo, redroot pigweed (Amaranthus retroflexus); details: foliage application, AAH 320 g/ha, three weeks after application
Summary of the method: as §3

green foxtail = assay: Test Example 4: herbicidal effect by soil treatment (Table 19, symbol G); type: in vivo, green foxtail (Setaria viridis); details: amount of applied herbicide 320 g/ha
Summary of the method: as §1

redroot pigweed [7] = assay: Test Example 4: herbicidal effect by soil treatment (Table 19, symbol N); type: in vivo, redroot pigweed (Amaranthus retroflexus); details: amount of applied herbicide 320 g/ha
Summary of the method: as §1

persian speedwell [8] = assay: Test Example 4: herbicidal effect by soil treatment (Table 19, symbol R); type: in vivo, Persian speedwell (Veronica persica); details: amount of applied herbicide 320 g/ha
Summary of the method: as §1

oval-leafed pondweed = assay: Test Example 2: herbicidal activity, application during weed generation under submerged conditions (Table 17, symbol C); type: in vivo, oval-leafed pondweed (Monochoria vaginalis); details: AAH 320 g/ha; application during weed generation, submerged conditions
Summary of the method: as §2

late watergrass = assay: Test Example 1: herbicidal activity, application before weed generation under submerged conditions (Table 16, symbol A); type: in vivo, late watergrass (Echinochloa oryzicola); details: 320 g/ha applied herbicide
Summary of the method: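 Emulsion formulation, water-diluted to set dose, was put onto the flooded surface (4 cm depth, alluvial soil) the same day weeds were sown and 2.5-leaf rice transplanted. After 3 weeks at 25-30 °C under glass, each species was rated 0 (≤5% kill) to 5 (≥90% kill).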

Compound	herbicidal effect rating, F: southern crabgrass (southern crabgrass [1])	herbicidal effect rating, B: Japanese bulrush (Japanese bulrush)	herbicidal effect rating, P: chickweed (chickweed)	R: persian speedwell, herbicidal effect (persian speedwell [2])	H: barnyard grass, herbicidal effect (barnyard grass)	herbicidal effect rating, K: Italian ryegrass (Italian ryegrass [3])	F: southern crabgrass, herbicidal effect (southern crabgrass [4])	herbicidal effect rating, J: blackgrass (blackgrass)	K: Italian ryegrass, herbicidal effect (Italian ryegrass [5])	O: lambsquarters, herbicidal effect (lambsquarters)	N: redroot pigweed, herbicidal effect (redroot pigweed [6])	herbicidal effect rating, G: green foxtail (green foxtail)	herbicidal effect rating, N: redroot pigweed (redroot pigweed [7])	herbicidal effect rating, R: persian speedwell (persian speedwell [8])	herbicidal effect rating, C: oval-leafed pondweed (oval-leafed pondweed)	Herbicidal effect on A: late watergrass (grade 0-5) (late watergrass)
CCCC(=O)Oc1c(C)nn(C)c(=O)c1-c1c(-c2ccc3c(c2)CCO3)sc2ccccc12 [1-102]	2 (Herbicidal rate of 20% or more and less than 40%)	5 (Herbicidal rate of 90% or more (almost completely withered))	5 (Herbicidal rate of 90% or more (almost completely withered))	5 (Herbicidal rate of 90% or more (almost completely withered))	3 (Herbicidal rate of 40% or more and less than 70%)	3 (Herbicidal rate of 40% or more and less than 70%)	4 (Herbicidal rate of 70% or more and less than 90%)	0 (Herbicidal rate of 5% or less (almost no effect))	3 (Herbicidal rate of 40% or more and less than 70%)	4 (Herbicidal rate of 70% or more and less than 90%)	5 (Herbicidal rate of 90% or more (almost completely withered))	5 (Herbicidal rate of 90% or more (almost completely withered))	4 (Herbicidal rate of 70% or more and less than 90%)	5 (Herbicidal rate of 90% or more (almost completely withered))	5 (Herbicidal rate of 90% or more (almost completely withered))	4 (Herbicidal rate of 70% or more and less than 90%)
Cc1nn(C)c(=O)c(-c2c(-c3cnc4ccccc4c3)sc3ccccc23)c1O [1-108]	0 (Herbicidal rate of 5% or less (almost no effect))	2 (Herbicidal rate of 20% or more and less than 40%)	0 (Herbicidal rate of 5% or less (almost no effect))	0 (Herbicidal rate of 5% or less (almost no effect))	0 (Herbicidal rate of 5% or less (almost no effect))	0 (Herbicidal rate of 5% or less (almost no effect))	0 (Herbicidal rate of 5% or less (almost no effect))	0 (Herbicidal rate of 5% or less (almost no effect))	0 (Herbicidal rate of 5% or less (almost no effect))	2 (Herbicidal rate of 20% or more and less than 40%)	0 (Herbicidal rate of 5% or less (almost no effect))	0 (Herbicidal rate of 5% or less (almost no effect))	0 (Herbicidal rate of 5% or less (almost no effect))	0 (Herbicidal rate of 5% or less (almost no effect))	0 (Herbicidal rate of 5% or less (almost no effect))	3 (Herbicidal rate of 40% or more and less than 70%)
